Source: patent US12037419B2 (The Feinstein Institutes for Medical Research, priority 2016, dated 2024)

Legend:
human monocytes [1] = assay: Internalization of FITC-labeled HMGB1 or CpG by monocytes (immunofluorescence microscopy); assay type: cell-based
Procedure: Immunofluorescence Microscopy: In situ proximal ligation assay was performed according to manufacturer's protocol (Duolink, Sigma). Following stimulation, human monocytes were washed three times with ice-cold PBS and were fixed with 4% (wt/vol) PFA for 1 hour at room temperature, seeded (2×10^5 cells) on slides using cytospin (Shandon), permeablized with chilled MeOH for 4 min and with PBS/0.1% (vol/vol) Triton X-100 and blocked for 1 h at room temperature. Cells were then incubated overnight with a primary antibody pair directed to rabbit anti-RAGE (ab3611, Abcam) and to mouse anti-LAIR-1 (BD Bioscience), respectively. The cells were incubated with corresponding PLA probes conjugated to oligonucleotides (mouse MINUS and rabbit PLUS), then followed by ligation and rolling circle amplification in close proximity. Images were acquired using AxioVision software and a confocal microscope (Olympus). Quantification was performed using Zen2 (Zeiss). […] Cells were washed three times with cold-PBS and fixed with 4% PFA and stained with PECy5-anti-human CD14 antibody (BD biosciences) or propidium iodide (PI). […] PI or DAPI was used for nuclear staining. […] After washing, cells were stained with Alexa Fluor 594 anti-rabbit IgG (Life Technologies), and mounted DAPI-containing medium. […]

human monocytes [2] = assay: Induction of anti-inflammatory molecules / M2-like phenotype (Mer, PDL-1, IL-10, CD163) in monocytes; assay type: cell-based
Procedure: Monocyte isolation and stimulation: Human PBMCs were obtained following institutional guidelines of the Feinstein Institute for Medical Research (Feinstein) and isolated from blood of healthy donors by density centrifugation (New York Blood Bank). Monocytes were negatively enriched using a human monocyte enrichment kit (Stem Cell Technology). Purity of monocytes (≥90% CD11b+CD14+LAIR-1+) was determined by flow cytometry. […] Splenic murine monocytes from wild type mice, RAGE deficient or LAIR-1 conditional knockout mice were isolated using EasySep mouse monocyte enrichment kit (Stem Cell Technology). C57BL/6 mice, Lysozyme2-Cre transgenic mice were purchased from Jackson Laboratory. Myeloid specific LAIR-1 conditional knockout mice (Lysozyme2-Cre×LAIR fl/fl) were bred and maintained in our facility (Feinstein) under specific pathogen-free conditions. RAGE deficient mice (Department of Medicine, Karolinska Institute Stockholm, Sweden) were maintained at Feinstein. Eight-to ten weeks old male mice were used for experiments. All animal procedures were approved by the Feinstein Institutional Animal Care and Use Committee.
RT-PCR analysis and primers: Total RNA was extracted from cells (1-2×10^6 cells per sample) with an RNeasy kit (Qiagen, Venlo, Limburg, Netherlands) and cDNA was generated using an iScript cDNA synthesis kit (Bio-Rad laboratories). […] The relative induction was calculated by 2-ΔΔCt.
Cytokine analysis: Cytokine levels were measured using a Human Proinflammatory 7-plex assay following the manufacturer's protocols (Meso Scale Discovery (MSD). MSD plates were analyzed on the MS2400 imager (MSD). All standards and samples were run in duplicates.
Flow cytometry: Cells were suspended in staining buffer containing 2% BSA and incubated with Fc block (Miltenyi Biotec) for 15 min on ice. […] Events were acquired using either an LSRII or Fortessa cell analyzer (BD Biosciences), and data were analyzed using FlowJo (Tree star).

HMGB1 = target: T1, HMGB1 (Homo sapiens, UniProt P09429); assay: SPR assay of HMGB1 and C1q binding, including redox states of HMGB1
T1 construct: made in house
T1 sequence (P09429 1-215): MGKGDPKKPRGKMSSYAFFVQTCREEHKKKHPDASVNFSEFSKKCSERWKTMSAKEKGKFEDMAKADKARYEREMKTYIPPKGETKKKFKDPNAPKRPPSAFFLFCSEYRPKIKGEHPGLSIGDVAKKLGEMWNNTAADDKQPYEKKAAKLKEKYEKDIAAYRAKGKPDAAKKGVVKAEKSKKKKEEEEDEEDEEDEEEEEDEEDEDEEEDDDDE
Procedure: Surface Plasmon Resonance analysis (SPR): For real-time binding interaction studies, a BIAcore T200 instrument (GE Healthcare) was used. […] A 1:1 mixture of N-hydroxysuccinimide and N-ethyl-N-(dimethyaminopropyl) carbodiimide was used to activate 2 flow-cells of the CMS chip. […] The analytes were diluted in 1×PBS+0.01% (vol/vol) tween-20 buffer. The analytes were sequentially injected at a flow rate of 30 μl/min for 60 s at 25° C. The KD was dertermined using the BIAcore evaluation software 2.0 (GE Healthcare) supposing a 1:1 binding ratio.
A 1:1 mixture of N-hyrdoxysuccinimide and N-ethyl-N-(dimethyaminopropyl) carbodiimide was used to activate 2 flow-cells of the CMS chip. […] The analyte (HMGB1) was diluted in 1×HBS-N+0.05% tween-20 buffer (filtered—0.22 um). Three redox states of HMGB1 were sequentially injected at a flow rate of 20 μl/min for 60 s at 25° C., the dissociation time was set for 3 minutes. The concentration was set at 500 nM.
The analytes were diluted in 1×HBS-N+0.05% tween-20 buffer (filtered—0.22 um). The analytes were sequentially injected at a flow rate of 20 μl/min for 60 s at 25° C. The dissociation time was set for 3 minutes. The KD for each analyte was determined using the Biacore evaluation software 2.0 supposing a 1:1 binding ratio.

Substance: C1q: C1q purified from pooled normal human sera, obtained from Complement Technology
- internalization of FITC-labeled CpG oligonucleotides (human monocytes [1]; 15 min): significantly reduced cellular internalization
- cytosolic FITC-HMGB1 (internalization) (human monocytes [1]; FITC-HMGB1 3 μg/ml, C1q 25 μg ml-1, 15 min, 37° C.): significantly decreased
- potency of physiologic C1q levels versus SLE levels (25-50 μg/ml) for Mer, PDL-1, IL-10, CD163 mRNA (human monocytes [2]; C1q 10, 25, 50 or 75 μg/ml with HMGB1, 24 h): more potent
- transcription and protein expression of anti-inflammatory factors (Mer, PDL-1, IL-10, CD163) (human monocytes [2]; together with HMGB1 3 μg/ml, C1q 25 μg/ml or C1q tail 53 μg/ml, 24 h): induced the transcription and protein expression of a variety of anti-inflammatory factors
- binding to different redox states of HMGB1 (HMGB1; disulfide, all thiol, oxidized HMGB1): preferentially binding to the disulfide form of HMGB1
- Kd (HMGB1; read-out: KD of HMGB1 and C1q binding, 25° C., 1:1 binding ratio supposed): 200 nM
